Test results from patent publication US7820703B2, “Lysophosphatidic acid receptor selective antagonists” (University of Virginia Patent Foundation, priority 2004, dated 2010).
“Also recorded” adds a separate entry of the source.

Assays:
human LPA2 [1] = target: T1, human LPA2 (Homo sapiens, UniProt Q9HBW0); assay: GTP[γ35S] binding assay, agonist activity at LPA2; assay type: biochemical; parameters: expressed in transfected cells; host or cells: HEK293T cells (membranes)
Description: (§1) The appropriate receptor plasmid DNA (encoding mouse LPA1, human LPA2 or human LPA3) was mixed with equal amounts of expression plasmids (pcDNA3) encoding a mutated (C351F) rat Gi2a, cow β1, and γ2 proteins and these DNAs were used to transfect monolayers of HEK293T cells (where ‘T’ indicates expression of the SV-40 virus large T antigen) using the calcium phosphate precipitate method. After about 60 hours, cells were harvested, membranes were prepared, aliquoted and stored at −70° C. until use.
(§2) The GTP[35 γS] assay was performed as described by us previously. Membranes containing 5 ug of protein were incubated in 0.1 ml GTP-binding buffer (in mM: HEPES 50, NaCl 100, MgCl2 10, pH7.5) containing […], […], 0.1 nM GTP[35 γS] (1200 Ci/mmol), and indicated lipid(s) for 30 minutes at 30° C. Samples were analyzed for membrane-bound radionuclide using a Brandel Cell Harvester (Gaithersburg, Md.).
(§3) Membranes prepared from these cells are used to measure GTPγ[^35S] binding as a function of test compound concentration. The resulting dose-response curves provide relative potency (EC50) and efficacy (Emax) for the test compounds.

LPP1 (PAP2a) = target: T2, LPP1 (PAP2a) (Homo sapiens, UniProt O14494); assay: LPP inhibition, competition with [32P]LPA, LPP1; assay type: biochemical; details: competition with 50 nM [32P]LPA
T2 sequence (O14494 1-284): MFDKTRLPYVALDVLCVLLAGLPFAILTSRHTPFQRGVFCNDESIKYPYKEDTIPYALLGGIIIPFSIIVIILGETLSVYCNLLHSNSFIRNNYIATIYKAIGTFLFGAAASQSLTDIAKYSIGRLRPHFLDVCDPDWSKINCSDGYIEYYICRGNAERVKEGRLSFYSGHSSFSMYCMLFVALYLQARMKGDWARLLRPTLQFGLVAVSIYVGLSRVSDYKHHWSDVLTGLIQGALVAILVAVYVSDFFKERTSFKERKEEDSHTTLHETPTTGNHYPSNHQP
Description: (§4) NOHPP was also tested for activity at the three cloned LPPs. Although the phosphonate head group eliminates the possibility of NOHPP acting as a substrate, it is possible that the compound could be a competitive inhibitor.

human LPA3 [2] = target: T3, human LPA3 (Homo sapiens, UniProt Q9UBY5); assay: GTP[γ35S] binding assay, agonist activity at LPA3; assay type: biochemical; parameters: expressed in transfected cells; host or cells: HEK293T cells (membranes)
T3 sequence (Q9UBY5 1-353): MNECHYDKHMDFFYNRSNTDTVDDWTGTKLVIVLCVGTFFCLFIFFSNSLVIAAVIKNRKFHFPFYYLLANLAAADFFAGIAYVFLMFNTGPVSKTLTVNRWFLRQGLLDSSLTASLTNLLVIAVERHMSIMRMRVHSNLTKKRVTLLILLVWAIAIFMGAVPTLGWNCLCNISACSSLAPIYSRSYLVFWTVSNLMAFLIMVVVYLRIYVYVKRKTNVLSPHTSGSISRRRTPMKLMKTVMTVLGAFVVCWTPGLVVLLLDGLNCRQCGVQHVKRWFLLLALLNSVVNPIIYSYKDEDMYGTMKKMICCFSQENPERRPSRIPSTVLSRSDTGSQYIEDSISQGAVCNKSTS
Description: as §1
as §2, with “Md.). The C351F mutation renders the Gi2α protein resistant to inactivation by pertussis toxin or the alkylating agent N-ethylmaleimide; however in practice background binding was sufficiently low to obviate these maneuvers.” for “Md.).”
(§5) This assay isolates each recombinant LPA receptor and allows analysis of all three receptors using the same system.
as §3

mouse LPA1 [3] = target: T4, mouse LPA1 (Mus musculus, UniProt P61793); assay: GTP[γ35S] binding assay, agonist activity at LPA1; assay type: biochemical; parameters: expressed in transfected cells; host or cells: HEK293T cells (membranes)
T4 sequence (P61793 whole entry): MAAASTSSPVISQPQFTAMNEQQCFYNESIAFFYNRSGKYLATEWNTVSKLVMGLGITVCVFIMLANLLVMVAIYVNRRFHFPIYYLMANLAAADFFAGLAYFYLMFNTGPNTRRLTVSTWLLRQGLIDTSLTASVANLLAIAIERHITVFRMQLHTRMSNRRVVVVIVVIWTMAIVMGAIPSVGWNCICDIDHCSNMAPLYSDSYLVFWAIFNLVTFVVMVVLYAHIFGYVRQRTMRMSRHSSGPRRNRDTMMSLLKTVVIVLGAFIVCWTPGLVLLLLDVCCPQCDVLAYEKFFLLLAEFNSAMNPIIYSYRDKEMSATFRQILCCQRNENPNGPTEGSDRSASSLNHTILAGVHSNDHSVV
Description: as §1
as §2, with “Md.). The C351F mutation renders the Gi2α protein resistant to inactivation by pertussis toxin or the alkylating agent N-ethylmaleimide; however in practice background binding was sufficiently low to obviate these maneuvers.” for “Md.).”
as §5, §3

LPP3 (PAP2b) = target: T5, LPP3 (PAP2b) (Homo sapiens, UniProt O14495); assay: LPP inhibition, competition with [32P]LPA, LPP3; assay type: biochemical; details: competition with 50 nM [32P]LPA
T5 sequence (O14495 1-311): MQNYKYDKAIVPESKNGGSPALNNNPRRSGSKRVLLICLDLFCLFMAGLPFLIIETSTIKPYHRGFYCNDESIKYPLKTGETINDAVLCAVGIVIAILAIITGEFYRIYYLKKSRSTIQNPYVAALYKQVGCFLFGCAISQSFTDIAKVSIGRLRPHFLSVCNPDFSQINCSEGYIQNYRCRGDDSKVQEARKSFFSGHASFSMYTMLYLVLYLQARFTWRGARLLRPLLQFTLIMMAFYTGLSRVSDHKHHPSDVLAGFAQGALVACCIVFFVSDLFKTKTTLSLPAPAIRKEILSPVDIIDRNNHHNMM
Description: as §4

LPA1 receptor = target: T6, LPA1 receptor (Mus musculus, UniProt P61793); assay: antagonism of LPA-evoked GTP[γ35S] binding at LPA1; assay type: biochemical; details: GTP[γ35S] binding
T6 construct: expressed in transfected cells; host or cells: HEK293T cells (membranes)
T6 sequence (P61793 whole entry): as the sequence (P61793 whole entry) above
Description: as §1, §2
The X-intercept of the linear transformation is equal to the inverse log of the KI.
All compounds were characterized by ^1H and ^13C NMR, mass spectroscopy and, in certain cases, elemental analysis. A GTP[γ35S] binding assay was adapted to assess in vitro activity.
All compounds were characterized by ^1H and ^13C NMR, mass spectroscopy and, in most cases, C, H, N analyses. A membrane-based GTP[γ^35S] binding assay was adapted to assess in vitro activity at the LPA1 and LPA3 receptors.

LPA receptors = assay: whole cell assays of calcium mobilization or inhibition of cAMP accumulation, agonist activity; assay type: cell-based
Description: (§6) Assays for cAMP accumulation were conducted on populations of 5×10^5 cells stimulated with […] in the presence of the phosphodiesterase inhibitor isomethylbutylxanthine (IBMX) for 15 minutes at 30° C. cAMP was measured by automated radioimmunoassay.
A FLIPR™ (Molecular Devices, Inc.) was used to measure intracellular calcium in A431 and HEK293T cells. A431 cells were seeded (˜50,000 cells/well) in 96-well clear bottom black microplates (Corning Costar Corp., Cambridge, Mass.) and left overnight in CO2 incubator at 37° C. HEK293T cells were treated likewise, but seeded onto poly D-lysine coated microplates (Becton Dickinson, Franklin Lakes, N.J.). A431 cells were dye-loaded with 4 μM Fluo-3 AM ester (Molecular Probes Inc., Eugene, Oreg.) in a loading buffer (1×HBSS buffer, pH 7.4, containing 20 mM HEPES, 0.1% BSA, and 2.5 mM probenecid) for 1 hour at 37° C. Cells were then washed four times with the loading buffer and exposed in the FLIPR™ to sets of compounds. HEK293T cells were loaded with 2 μM Fluo-4 AM ester (Molecular Probes Inc., Eugene, Oreg.) in the same loading buffer without probenecid for 30 minutes and washed four times before being exposed to compounds in the FLIPR™. […]
The same activity was determined with human LPA1 using a recombinant baculovirus-infected insect Sf9 cell membrane preparation.

human LPA2 [4] = target: T1, human LPA2; assay: chloride conductance in Xenopus oocytes injected with human LPA2 mRNA; assay type: cell-based; parameters: expressed in transfected cells; host or cells: Xenopus laevis oocytes injected with mRNA; details: 10 μM applied to the oocyte surface
Description: (§7) wls-b8L and the other phosphonates were also tested also for activity in three whole cell assays. […] Finally, the activity of wls-b8L in activating a chloride conductance in Xenopus laevis ooctyes was measured.

Xenopus laevis ooctyes = assay: chloride conductance in Xenopus laevis oocytes, endogenous receptor; assay type: cell-based
Description: as §7

human LPA3 [5] = target: T3, human LPA3; assay: chloride conductance in Xenopus oocytes injected with human LPA3 mRNA; assay type: cell-based; parameters: expressed in transfected cells; host or cells: Xenopus laevis oocytes injected with mRNA; details: 10 μM applied to the oocyte surface
Description: as §7

mouse LPA1 [6] = target: T4, mouse LPA1; assay: cAMP accumulation in RH7777 cells expressing LPA1; assay type: cell-based; parameters: expressed in transfected cells; details: concentration of 1 μM
Description: as §6
Rat hepatoma RH7777 cell monolayers were transfected with the mLPA1 plasmid DNA using the calcium phosphate precipitate method and clonal populations expressing the neomycin phosphotransferase gene were selected by addition of geneticin (G418) to the culture media. The RH7777 cells were grown in monolayers at 37° C. in a 5% CO02/95% air atmosphere in growth media consisting of: 90% MEM, 10% fetal bovine serum, 2 mM glutamine and 1 mM sodium pyruvate.
as §7

human platelets = assay: aggregation of human platelets; assay type: cell-based; details: concentrations up to 10 micromolar
Description: wls-b8L is expected to be resistant to hydrolysis by phosphohydrolases by virtue of its containing a phosphonate, rather than a phosphate, group. Furthermore this chemical entity (wls-b8L) has two additional desirable properties.

T1 sequence (Q9HBW0 whole entry): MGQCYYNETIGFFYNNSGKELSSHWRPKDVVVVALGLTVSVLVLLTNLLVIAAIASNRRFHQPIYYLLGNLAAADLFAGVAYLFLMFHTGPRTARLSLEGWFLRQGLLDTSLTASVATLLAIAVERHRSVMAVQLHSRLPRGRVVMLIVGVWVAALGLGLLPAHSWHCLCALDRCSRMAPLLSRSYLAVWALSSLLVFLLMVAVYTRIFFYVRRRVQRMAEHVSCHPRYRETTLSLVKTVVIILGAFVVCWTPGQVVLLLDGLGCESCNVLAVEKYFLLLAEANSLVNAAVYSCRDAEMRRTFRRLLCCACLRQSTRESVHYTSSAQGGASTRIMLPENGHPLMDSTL

Row | inhibition of LPP1 (LPP1 (PAP2a)) | inhibition of LPP3 (LPP3 (PAP2b)) | antagonist activity at LPA1, in words (LPA1 receptor) | chloride conductance response, oocytes injected with human LPA2 mRNA (human LPA2 [4]) | activating a chloride conductance, endogenous receptor (Xenopus laevis ooctyes) | chloride conductance response, oocytes injected with human LPA3 mRNA (human LPA3 [5]) | inhibition of cAMP accumulation, efficacy (mouse LPA1 [6]) | SMILES | agonist activity at LPA2, in words (human LPA2 [1]) | agonist activity at LPA3, in words (human LPA3 [2]) | agonist activity at LPA1, in words (mouse LPA1 [3]) | inhibition of LPP3 (LPP3 (PAP2b); listed as VPC12031) | agonist activity in whole cell assays (LPA receptors) | aggregation of human platelets (human platelets)
1 | to a lesser extent | inhibited | – | – | – | – | – | CCCCCCCC/C=C\CCCCCCCC(=O)NCCC(O)P(=O)(O)O (racemic) [NOHPP, (9Z)-N-(rac-3-hydroxy-3-phosphonopropyl)octadec-9-enamide] | fully efficacious; also recorded: as efficacious as, but somewhat less potent than, LPA | little activity; also recorded: distinctly less potent and far less efficacious than LPA | fully efficacious; also recorded: as efficacious as, but somewhat less potent than, LPA | markedly better at the PAP2b (LPP3) than PAP2a (LPP1) | – | –
2 | – | – | did block LPA activity | – | – | – | – | CCCCCCCC/C=C\CCCCCCCC(=O)N[C@@H](COP(=O)(O)O)Cc1ccccc1 [VPC12084] | – | – | – | – | appreciable agonist activity | –
3 | – | – | – | very modest response | does not evoke this response | very modest response | fully efficacious | CCCCCCCC/C=C\CCCCCCCC(=O)NCCCP(=O)(O)O [wls-b8L, (9Z)-N-(3-phosphonopropyl)octadec-9-enamide] | – | – | more potent and efficacious at LPA1 than at either LPA2 or LPA3 | – | – | does not elicit aggregation
